# In patent US12370180B2, “P38 map kinase inhibitors for treating Friedreich's ataxia” (THE TRUSTEES OF THE UNIVERSITY OF PENNYSLVANIA, priority 2015, dated 2025):
# Positions count from the first letter of the chain named. Entries after “also recorded” stand apart in the source; their conditions may differ.
# B1: gFA2: hit shRNA (also used as siRNA) from random shRNA library, SEQ ID No: 1 (nucleic acid)
# chain: GCCAATCGGGGAGGTCGGCGCATATCATGCTAAACCATGATATGCGCCGACCTCCCCGATTGGC
# B2: gFA2.10: gFA2-variant clone, SEQ ID No: 10 (nucleic acid)
# chain: B1 chain with A4C, A5C, G11C, C21A, C36T, C54T
# modifications: expressed or natural sequence
# B3: gFA2.8: gFA2-variant clone with 5 mutations compared to gFA2, SEQ ID No: 9 (nucleic acid)
# chain: B1 chain with A4C, A5C, G11C, C21A, C36T
# modifications: expressed or natural sequence
# Key:
# Assay type in all cases: cell-based, human
# primary FA fibroblasts = experiment: Growth of primary FA fibroblasts in beta-hydroxybutyrate (BHB) based mitochondrial stress medium; conditions: for reversal of the slow-growth phenotype (growth defect) of primary FA fibroblasts: beta-hydroxybutyrate-based media
# Protocol: The data shown are the means of triplicate samples+/−one SD. ***p<0.005. (C) Survival of normal control fibroblasts (GM8402) and FA fibroblasts (GM4078) in DMEM plus BHB after 12 days in culture. ***p<0.005. […] Cells were seeded at 80,000 cells per 100 mm dish and were kept sub-confluent. The data shown are the means of triplicate samples+/−one SD. ***p<0.005.
# FA 3665B cells were infected with gFA2 (squares), gFA11 (diamonds) or a random clone (C3) (triangles). Cells were then sorted and GFP-positive cells were grown in DMEM plus BHB 5 mM (FIG. 4A) or in DMEM plus 5 mM glucose (FIG. 4B) ***=p […].
# FA is caused by intronic trinucleotide repeat expansions that decrease expression of frataxin, a protein involved in mitochondrial iron-sulfur-cluster biogenesis. Clones were selected that reverse the slow-growth phenotype of primary FA fibroblasts in media with beta-hydroxybutyrate, a carbon source that particularly stresses cells with mitochondrial dysfunction (FIGS. 1 and 3). Among several clones identified, two clones have been tested and confirmed (FIG. 4): “Clone 2” (also referred to as gFA2) and “Clone 11” (also referred to as gFA11). The DNA coding strand for the shRNA sequences of those two […] (gFA2 and gFA11) are provided below, with the loop-encoding sequences in brackets. The shRNAs themselves are RNA versions of these sequences, with T changed to U.
# These experiments have been repeated several times, over 4 days, 7 days, and 10 days, with the same results. Therefore, random shRNA screening can be combined with bioinformatic pattern matching to identify conventional chemical-compound therapeutic candidates, and potential therapeutic target proteins.
# cytokine secretion = experiment: Cytokine secretion into media of FA cells, measured by ELISA; conditions: media of FA cells expressing clone vs gFA11-Mut1
# From the text: FIGS. 9A and 9B show the effect of gFA11 and gFA11-Mut1 shRNA sequences on the secretion of cytokines as measured by ELISA. […] These secretion patterns matched the expression changes seen on microarray analysis of mRNAs of the same cytokines.
# (§1) Of relevance, it has been shown that silencing of the FA disease gene induces a senescence phenotype. […] Finally, gene-expression analyses of cells expressing Clone 11 also indicated an up-regulation of genes involved in DNA repair.
# GM3816 cells = experiment: Sensitivity of FA cells to ionizing (gamma) radiation; conditions: 0.6 Gy irradiation
# From the text: as §1
# frataxin = experiment: Frataxin expression in primary FA fibroblasts; conditions: vector-expressed shRNA or 10 nM transfected siRNA, BHB medium
# Protocol: Frataxin expression in GM3816 cells infected with gFA2 vs. a random clone (C3) (FIG. 5A) and in GM3665B cells transfected with 10 nM gFA2 siRNA or a random clone (C3) (FIG. 5B). Cells were transfected every 3-4 days for two weeks and kept in BHB medium after the first transfection. ***=p value<0.005
# FIG. 6: Hit-optimization of clone gFA2. A sub-library of ˜3000 sequences was constructed, each with a limited number of random mutations compared to gFA2. This sub-library was screened as described previously and two gFA2-variant clones, gFA2.8 and gFA2.10, were identified. […] (Cells were transfected every two days for one week and kept in DMEM plus 5 mM BHB after the first transfection. ***=p value<0.005). gFA2.8 has 5 mutations compared to gFA2; as a result, there are 5 mismatched bases in the hairpin structure.
molecule,measurement,setting,value
CNC(=O)c1ccc(C)c(-n2c(C)cc(OCc3ccc(F)cc3F)c(Br)c2=O)c1 [PH-797804],reversal of the slow-growth phenotype (growth defect) of primary FA fibroblasts,primary FA fibroblasts,reversal of the growth defect
O=c1ncn2nc(Sc3ccc(F)cc3F)ccc2c1-c1c(Cl)cccc1Cl [VX-745],reversal of the slow-growth phenotype (growth defect) of primary FA fibroblasts,primary FA fibroblasts,reversal of the growth defect
Oc1ccc(-c2nc(-c3ccncc3)c(-c3ccc(F)cc3)[nH]2)cc1 [SB-202190],reversal of the slow-growth phenotype (growth defect) of primary FA fibroblasts,primary FA fibroblasts,recapitulate the phenotype induced by Clone 11; also recorded: reversal of the growth defect
"gFA11-Mut1: version of Clone 11 with a point mutation in the seed sequence, SEQ ID No: 5 and 6 (chain 1 AACACAAUGGAAGAGUGCUGGGUDGDG; chain 2 UGUUGUGUUACCUUCUCACGACCCACC; listed as RNA, chemistry not fully specified; one strand is listed 3' to 5')",reversal of the slow-growth phenotype (growth defect) of primary FA fibroblasts,primary FA fibroblasts,diminished; also recorded: the growth-enhancement phenotype of gFA11 is affected
"gFA11: hit shRNA from random library, SEQ ID No: 2; siRNA version SEQ ID No: 3 and 4 (chain 1 AACAGAAUGGAAGAGUGCUGGGUDGDG; chain 2 UGUUGUCUUACCUUCUCACGACCCACC; listed as RNA, chemistry not fully specified; one strand is listed 3' to 5')",GM-CSF secretion,cytokine secretion; p<0.001,decreases
same,VEGF secretion,cytokine secretion; p<0.001,decreases
same,IL8 (IL-8) secretion,cytokine secretion; p=0.001,decreases
same,GRO secretion,cytokine secretion; p=0.003,decreases
same,MCP-1 secretion,cytokine secretion; p=0.005,decreases
same,IL1-beta (IL-1-beta) secretion,cytokine secretion; p=0.01,decreases
same,IP-10 secretion,cytokine secretion; p=0.01,decreases
same,RANTES secretion,cytokine secretion; p=0.04,decreases
same,IL6 (IL-6) secretion,cytokine secretion; p=0.09,decreases
same,reversal of the slow-growth phenotype (growth defect) of primary FA fibroblasts,primary FA fibroblasts,increase the growth of FA fibroblasts; also recorded: growth-enhancing effect; also recorded: recapitulate the phenotype induced by the corresponding shRNA sequence
same,reversal of the slow-growth phenotype (growth defect) of primary FA fibroblasts,primary FA fibroblasts; listed as Clone 11,more effective than Clone 2
same,cell susceptibility to gamma irradiation,GM3816 cells,are able to recover
same,cell susceptibility to gamma irradiation,GM3816 cells; listed as Clone 11,protective
same,frataxin expression,frataxin,does not increase frataxin expression
"Cc1ccc(-n2nc(C(C)(C)C)cc2NC(=O)Nc2ccc(OCCN3CCOCC3)c3ccccc23)cc1 [BIRB-796, doramapimod]",reversal of the slow-growth phenotype (growth defect) of primary FA fibroblasts,primary FA fibroblasts,recapitulate the phenotype induced by Clone 11; also recorded: reverses the growth defect
"Cc1ccc(-n2nc(C(C)(C)C)cc2NC(=O)NCc2cc(F)ccc2Oc2ccc3c(cnn3CCO)c2)cc1 [ARRY-614, pexmetinib]",reversal of the slow-growth phenotype (growth defect) of primary FA fibroblasts,primary FA fibroblasts,reversal of the growth defect
C[S+]([O-])c1ccc(-c2nc(-c3ccncc3)c(-c3ccc(F)cc3)[nH]2)cc1 (centres unmarked) [SB-203580],reversal of the slow-growth phenotype (growth defect) of primary FA fibroblasts,primary FA fibroblasts,recapitulates the phenotype induced by Clone 11; also recorded: reverses the growth defect
same,reversal of the slow-growth phenotype (growth defect) of primary FA fibroblasts,primary FA fibroblasts; listed as SB203580,increase the growth of FA cells in a dose-dependent manner
ralimetinib dimesylate [LY-2228820],increased growth,"primary FA fibroblasts; at 50 nM, p<0.005",1.6 fold
same,reversal of the slow-growth phenotype (growth defect) of primary FA fibroblasts,primary FA fibroblasts,recapitulate the phenotype induced by Clone 11; also recorded: reversal of the growth defect
NC(=O)c1ccc(N(C(N)=O)c2c(F)cccc2F)nc1-c1ccc(F)cc1F [VX-702],increased growth,"primary FA fibroblasts; at 500 nM, p=0.02",1.2 fold
same,reversal of the slow-growth phenotype (growth defect) of primary FA fibroblasts,primary FA fibroblasts,recapitulate the phenotype induced by Clone 11; also recorded: reversal of the growth defect
"Cc1c(F)cc(C(=O)NC2CC2)cc1-c1ccc(C(=O)NCC(C)(C)C)cn1 [GW-856553, losmapimod]",reversal of the slow-growth phenotype (growth defect) of primary FA fibroblasts,primary FA fibroblasts,reversal of the growth defect
B1,reversal of the slow-growth phenotype (growth defect) of primary FA fibroblasts,primary FA fibroblasts,increase the growth of FA fibroblasts
same,frataxin expression,frataxin,increases frataxin expression
same,frataxin expression,frataxin; listed as Clone 2,partially reverses the decreased expression of frataxin
B2,frataxin expression,frataxin,more efficacious
B3,frataxin expression,frataxin,more efficacious
